Data from PMC4094919, “Screening and hit evaluation of a chemical library against blood-stage Plasmodium falciparum” (Malaria Journal, 2014).
Entries after “also recorded” stand apart in the source; their conditions may differ. Like-named read-outs stand apart in the source and are kept apart here.

What was measured:
P. falciparum 3D7 strain = assay: P. falciparum 3D7 growth inhibition, DAPI imaging (HTS screen); assay type: cell-based; settings: Plasmodium falciparum
Protocol: The P. falciparum 3D7 strain was used for the primary screen.
For the screening of the chemical library, a validated high throughput screening (HTS) method was used as reported by Duffy and Avery. In brief, intra-erythrocyte P. falciparum 3D7 parasites incubated with the compounds for 72 hours were stained with 4′-6-diamidino-2-phenylindole (DAPI) and imaged using a high throughput confocal imaging system. To ascertain inhibition of parasite growth, images of fluorescent parasites were translated, using a mathematical algorithm, into a numerical output of classified spots (parasites) as determined by fluorescence size and intensity.
EC50 and CC50 values were calculated for compounds which presented an Emax plateau using GraphPad Prism.

[1] = test system: P. falciparum NF54 strain; assay: P. falciparum NF54 growth assay, 3H-hypoxanthine incorporation (hit validation); assay type: cell-based, Plasmodium falciparum; settings: for EC50: Plasmodium falciparum
Protocol: Synthesized compounds were tested in an alternative assay, in which ^3H-hypoxanthine incorporation was measured in the chloroquine-sensitive strain NF54 (Values were measured in duplicate, 12 points/EC50).
Cultivation of Plasmodium falciparum: Plasmodium falciparum strain NF54 was obtained from the Research and Reference Reagent Resource Center (MR4) (Manassas, VA, USA). The two strains were maintained in vitro by a modification of the method of Trager and Jensen. Cultures were maintained in A positive (A^+) human erythrocytes suspended at 5% hematocrit in complete medium. […] Parasite growth and morphology were observed daily using thin smears at 100X (oil immersion) magnification following staining with Giemsa stain.
Plasmodium falciparum growth assay: The protocol assesses the compound efficacy against the growth of P. falciparum in vitro.
All cultures used in the study are albumax II adopted. […]
Following the incubation period, the plates were harvested with a FilterMate cell harvester (Perkin Elmer) onto unifilter-96 GF/B plates, washed with distilled water to remove excess radiochemical and plates were kept for drying 37°C overnight or 60°C for 1 hr. Fifty µL of Microscint scintillation cocktail (Microscint-High Efficiency LSC-Cocktail; Perkin Elmer) added in the unifilter-96 GF/B plates and kept for 15-20 min. The plates were counted in a Top Count NXT microplate scintillation and luminescence counter (Perkin Elmer). The mean values for [^3H]-hypoxanthine incorporation in parasitized control and non-parasitized control erythrocytes were calculated.
Assay data were analysed using Graph pad prism ver.5 software. A variable sigmoid dose response curve is plotted keeping log concentrations at X-axis and % inhibition at Y-axis.

[2] = Chemical stability on standing at room temperature; assay type: physicochemical

EC50 (P. falciparum 3D7 strain; P. falciparum 3D7 strain, DAPI imaging, HTS screen, library sample, read-out: EC50 (3D7)): 602 nM
EC50 (P. falciparum 3D7 strain; negative logarithm of the molar EC50, 3D7, read-out: pEC50 (3D7) (converted)): 631 nM
EC50 ([1]; NF54, heading bounds of Figure 8: not reconfirming / reconfirming / newly synthesized compounds, read-out: EC50 (bound in Figure 8)): > 1000 nM
EC50 ([1]; P. falciparum NF54 strain, 3H-hypoxanthine incorporation, newly synthesized sample, read-out: EC50 (NF54)): 4700 nM
EC50 ([1]; negative logarithm of the molar EC50, NF54, read-out: pEC50 (NF54) (converted)): 5010 nM
SMILES: Cc1c(CO)c2ccccc2n1Cc1ccccc1C#N [Compound 1, 2-((3-(hydroxymethyl)-2-methyl-1H-indol-1-yl)methyl)benzonitrile]
Comment (activity in words on retest) ([1]; hit validation, NF54 confirmatory assay): Weakly active/unstable
Chemical stability [2]: significantly degraded; also recorded: unstable
